{
  "source": "patent US11464768B2",
  "about": "“Pimavanserin alone or in combination for use in the treatment of Alzheimer's disease psychosis” (ACADIA Pharmaceuticals Inc., priority 2016, dated 2022)",
  "key": {"[1]": {"tested_on": "ADP patients", "assay": "Same twelve-week study: NPI-NH Agitation/Aggression subscale (Domain C)", "format": "in vivo, human", "details": "pimavanserin arm; placebo arm 0.47", "description": "(§1) To determine the score for a given domain, the caregivers rate frequency and severity of the resident's behavior for that particular domain. The frequency is rated on a 0-4 point scale. For example, the frequency is rated as a) 0 for not present; b) 1 for occasional; c) 2 for often; d) 3 for frequent; and e) 4 for very frequent occurrence of the behavior in question. The severity is rated on a 1-3 point scale. For example, the severity is rated as a) 1 for mild; b) 2 for moderate; and 3 for severe. The score of each domain is determined by multiplying the frequency rating score by the severity rating score. The score of each domain ranges from 0 to 12.\nA twelve-week, randomized, double-blind, placebo-controlled, single-center study was conducted in ADP patients in nursing homes. […]\nNursing home staff administered the study drug to the patient each morning as a single oral dose (2×17 mg tablets) beginning within 24 hours of completion of all baseline assessments (Day 1). […] Behavioral symptoms were assessed using the NPI-NH Total and Individual Behavioral Domain scores and the Cohen-Mansfield Agitation Inventory—Short Form (CMAI-SF). […] In addition, evaluation of activities of daily living (ADL) was evaluated using the Alzheimer's Disease Cooperative Study-ADL instrument (ADCS-ADL). […]"}, "[2]": {"tested_on": "ADP patients", "assay": "Twelve-week randomized, double-blind, placebo-controlled study in ADP patients: NPI-NH psychosis score (Domains A and B)", "format": "in vivo, human", "details": "for improvement in psychosis at day 43 / improvement in psychosis at day 43 (NPI-NH Psychosis subscale): Table 2 Delta; for NPI-NH PSYCHOSIS SCORE at day 43, Effect Size: pimavanserin vs placebo", "description": "as §1\nA psychosis score on the psychosis subscale is the total score of the score of delusions (Domain A) and hallucinations (Domain B). For example, when the delusions score (Domain A) is 4 and the hallucinations score (Domain B) is 6, the psychosis score is 10. The psychosis score typically ranges from 0 to 24.\nA twelve-week, randomized, double-blind, placebo-controlled, single-center study was conducted in ADP patients in nursing homes. A purpose of the study was to evaluate the safety and efficacy of 34 mg pimavanserin compared to placebo in the treatment of ADP.\nA total of 181 nursing home patients were enrolled in the study and randomized on a one-to-one basis to receive either 34 mg of pimavanserin or placebo once daily for twelve weeks, following a three-week screening period including brief psycho-social therapy. Patients with Alzheimer's disease (AD) are defined by the National Institute of Neurological and Communicative Disorders and Stroke-Alzheimer's Disease and Related Disorder Association (NINCDS-ADRDA) criteria for possible or probable AD (McKhann et al., Neuro., 1984, vol. 34, 939-944.) The mean age of patients in the study was 86 years.\nAfter completing initial Screening Visit procedures (SV1), patients entered a 3-week screening period with antipsychotic medication washout. During the screening period, the patients received brief psychosocial therapy (BPST; Ballard et al., 2009) following best practice guidelines and safety assessments were performed. After the first Screening Visit (SV1), there were two additional contacts at weekly intervals with the BPST caregiver by phone (SV2 and SV3) to support the patient and the BPST caregiver in this screening phase. Safety assessments were also collected during this phase. At the discretion of the investigator and upon consultation with the Medical Monitor, patients were randomized into the double-blind phase of the study at any time during the screening period if there is a substantial worsening of psychotic symptoms.\nPatients were randomized to one of two treatment groups in a 1:1 ratio (pimavanserin 34 mg or placebo), stratified by Baseline Mini-Mental State Examination (MMSE) total score and Neuropsychiatric Inventory-Nursing Home Version (NPI-NH) psychosis score (Domains A and B) (4 levels: MMSE<6 and NPI-NH<12, MMSE>6 and NPI-NH<12, MMSE<6 and NPI-NH>12, MMSE>6 and NPI-NH>12), and entered a 12 week double-blind treatment period.\nNursing home staff administered the study drug to the patient each morning as a single oral dose (2×17 mg tablets) beginning within 24 hours of completion of all baseline assessments (Day 1). During the double-blind treatment period, study visits were performed as follows: Baseline, Day 15, Day 29, Day 43, Day 64, and Day 85 (or early termination). A follow-up telephone safety visit occurred 4 weeks after the last dose of study medication. The NPI-NH psychosis subscale (Delusions+Hallucinations domains) was used to assess psychosis. Behavioral symptoms were assessed using the NPI-NH Total and Individual Behavioral Domain scores and the Cohen-Mansfield Agitation Inventory—Short Form (CMAI-SF). […]"}},
  "data": [
    {"compound": "CC(C)COc1ccc(CNC(=O)N(Cc2ccc(F)cc2)C2CCN(C)CC2)cc1", "note": "[Pimavanserin, N-(1-methylpiperidin-4-yl)-N-(4-fluorophenylmethyl)-N′-(4-(2-methylpropyloxy)phenylmethyl)carbamide]", "values": [
      {"measurement": "improvement on the Agitation/Aggression subscale (Domain C) of the NPI-NH", "setting": "[1]", "value": 1.13, "unit": "points"},
      {"measurement": "durability of efficacy", "setting": "[2]; 34 mg once daily, 12 week study", "value": "demonstrated an efficacy throughout the 12 week study"},
      {"measurement": "NPI-NH PSYCHOSIS SCORE at day 43, Pimavanserin Group (change from baseline)", "setting": "[2]; 34 mg once daily, subgroup Baseline Agitation/Aggression Score <6 (n = 85), post-hoc analysis", "value": "−1.40"},
      {"measurement": "NPI-NH PSYCHOSIS SCORE at day 43, Pimavanserin Group (change from baseline)", "setting": "[2]; 34 mg once daily, subgroup Baseline Agitation/Aggression Score ≥6 (n = 93), post-hoc analysis", "value": "−6.09"},
      {"measurement": "NPI-NH PSYCHOSIS SCORE at day 43, Pimavanserin Group (change from baseline)", "setting": "[2]; 34 mg once daily, subgroup Baseline NPI-NH Psychosis Score <12 (n = 57), negative = improvement", "value": "−0.58"},
      {"measurement": "NPI-NH PSYCHOSIS SCORE at day 43, Pimavanserin Group (change from baseline)", "setting": "[2]; 34 mg once daily, subgroup Baseline NPI-NH Psychosis Score ≥12 & Agitation/Aggression Score ≥6 (n = 38), post-hoc analysis", "value": "−10.93"},
      {"measurement": "NPI-NH PSYCHOSIS SCORE at day 43, Pimavanserin Group (change from baseline)", "setting": "[2]; 34 mg once daily, subgroup Baseline NPI-NH Psychosis score ≥12 (n = 121), negative = improvement", "value": "−10.15"},
      {"measurement": "NPI-NH PSYCHOSIS SCORE at day 43, Pimavanserin Group (change from baseline)", "setting": "[2]; 34 mg once daily, subgroup No Prior Anti-psychotic use (n = 162)", "value": "−4.15"},
      {"measurement": "NPI-NH PSYCHOSIS SCORE at day 43, Pimavanserin Group (change from baseline)", "setting": "[2]; 34 mg once daily, subgroup Prior Anti-psychotic use (n = 16)", "value": "−1.52"},
      {"measurement": "improvement in psychosis, NPI-NH Psychosis score (combined hallucinations and delusions domains), primary endpoint", "setting": "[2]; 34 mg once daily, week 6, all patients, baseline mean 9.52, placebo 1.93 point, p=0.0451", "value": 3.76, "unit": "point"},
      {"measurement": "improvement in psychosis at day 43", "setting": "[2]; baseline NPI-NH Psychosis score of 12 or greater and baseline Agitation/Aggression score of 6 or greater, p-value=0.0010", "value": 7.18},
      {"measurement": "effect on NPI-NH psychosis score (in words)", "setting": "[2]; baseline NPI-NH psychosis score of 12 or greater and baseline Agitation/Aggression score of 6 or greater, p=0.0010", "value": "effectively reduced"},
      {"measurement": "improvement in psychosis at day 43", "setting": "[2]; patients having a baseline NPI-NH Agitation/Aggression score of 6 or greater, p-value=0.0010", "value": 4.41, "unit": "point"},
      {"measurement": "effect on NPI-NH psychosis score (in words)", "setting": "[2]; patients having a baseline NPI-NH Agitation/Aggression score of 6 or greater, p=0.001", "value": "effectively reduced"},
      {"measurement": "aggravating in psychosis at day 43", "setting": "[2]; patients having a baseline NPI-NH Agitation/Aggression score of less than 6, p-value=NS", "value": 0.42},
      {"measurement": "improvement in psychosis at day 43 (NPI-NH Psychosis subscale)", "setting": "[2]; patients having a baseline NPI-NH Psychosis score of 12 or greater, p-value=0.0114", "value": 4.43, "unit": "point"},
      {"measurement": "effect on NPI-NH psychosis score (in words)", "setting": "[2]; patients having a baseline NPI-NH psychosis score of 12 or greater, p=0.0114", "value": "effectively reduced"},
      {"measurement": "improvement in psychosis at day 43 (NPI-NH Psychosis subscale)", "setting": "[2]; patients having a baseline NPI-NH psychosis score of less than 12, p-value=NS", "value": 0.42},
      {"measurement": "improvement in psychosis at day 43", "setting": "[2]; patients that had anti-psychotic use prior to the baseline measurement on day 0, p-value=NS", "value": 6.53, "unit": "point"},
      {"measurement": "effect on NPI-NH psychosis score (in words)", "setting": "[2]; patients who had prior anti-psychotic use", "value": "effectively reduced"},
      {"measurement": "reduction of mean NPI-NH Psychosis score from baseline", "setting": "[2]; pimavanserin arm, baseline NPI-NH Psychosis score of 12 or greater, baseline 15.30, day 43", "value": 66.3, "unit": "%"},
      {"measurement": "mean NPI-NH Psychosis score at day 43", "setting": "[2]; pimavanserin arm, baseline NPI-NH Psychosis score of 12 or greater, baseline score 15.30", "value": 5.15},
      {"measurement": "NPI-NH PSYCHOSIS SCORE at day 43, Effect Size", "setting": "[2]; subgroup Baseline Agitation/Aggression Score <6 (n = 85), post-hoc", "value": 0.122},
      {"measurement": "NPI-NH PSYCHOSIS SCORE at day 43, Effect Size", "setting": "[2]; subgroup Baseline Agitation/Aggression Score ≥6 (n = 93), post-hoc", "value": "−0.778"},
      {"measurement": "NPI-NH PSYCHOSIS SCORE at day 43, Effect Size", "setting": "[2]; subgroup Baseline NPI-NH Psychosis Score <12 (n = 57)", "value": "−0.077"},
      {"measurement": "NPI-NH PSYCHOSIS SCORE at day 43, Effect Size", "setting": "[2]; subgroup Baseline NPI-NH Psychosis Score ≥12 & Agitation/Aggression Score ≥6 (n = 38), post-hoc", "value": "−1.225"},
      {"measurement": "NPI-NH PSYCHOSIS SCORE at day 43, Effect Size", "setting": "[2]; subgroup Baseline NPI-NH Psychosis score ≥12 (n = 121)", "value": "−0.734"},
      {"measurement": "NPI-NH PSYCHOSIS SCORE at day 43, Effect Size", "setting": "[2]; subgroup No Prior Anti-psychotic use (n = 162)", "value": "−0.351"},
      {"measurement": "NPI-NH PSYCHOSIS SCORE at day 43, Effect Size", "setting": "[2]; subgroup Prior Anti-psychotic use (n = 16)", "value": "−0.905"},
      {"measurement": "NPI-NH PSYCHOSIS SCORE at day 43, Delta (difference between placebo group and pimavanserin group in change from baseline)", "setting": "[2]; subgroup Baseline Agitation/Aggression Score <6 (n = 85), post-hoc, P-Value NS", "value": 0.68},
      {"measurement": "NPI-NH PSYCHOSIS SCORE at day 43, Delta (difference between placebo group and pimavanserin group in change from baseline)", "setting": "[2]; subgroup Baseline Agitation/Aggression Score ≥6 (n = 93), post-hoc, P-Value 0.0010", "value": "−4.41"},
      {"measurement": "NPI-NH PSYCHOSIS SCORE at day 43, Delta (difference between placebo group and pimavanserin group in change from baseline)", "setting": "[2]; subgroup Baseline NPI-NH Psychosis Score <12 (n = 57), P-Value NS", "value": "−0.42"},
      {"measurement": "NPI-NH PSYCHOSIS SCORE at day 43, Delta (difference between placebo group and pimavanserin group in change from baseline)", "setting": "[2]; subgroup Baseline NPI-NH Psychosis Score ≥12 & Agitation/Aggression Score ≥6 (n = 38), post-hoc, P-Value 0.0010", "value": "−7.18"},
      {"measurement": "NPI-NH PSYCHOSIS SCORE at day 43, Delta (difference between placebo group and pimavanserin group in change from baseline)", "setting": "[2]; subgroup Baseline NPI-NH Psychosis score ≥12 (n = 121), P-Value 0.0114", "value": "−4.43"},
      {"measurement": "NPI-NH PSYCHOSIS SCORE at day 43, Delta (difference between placebo group and pimavanserin group in change from baseline)", "setting": "[2]; subgroup No Prior Anti-psychotic use (n = 162), P-Value 0.0374", "value": "−1.90"},
      {"measurement": "NPI-NH PSYCHOSIS SCORE at day 43, Delta (difference between placebo group and pimavanserin group in change from baseline)", "setting": "[2]; subgroup Prior Anti-psychotic use (n = 16), P-Value NS", "value": "−6.53"},
      {"measurement": "treatment effect in patients with a concomitant Selective Serotonin Reuptake Inhibitor (SSRI) use", "setting": "[2]; subgroup analysis, compared with no concomitant SSRI use", "value": "treatment effect larger than those with no concomitant SSRI use"},
      {"measurement": "efficacious effect relative to placebo", "setting": "[2]; worded as an embodiment", "value": "about 2 times"}
    ]}
  ]
}
